Laboratory results as given in the NIST ThermoML archive (doi:10.1021/je100581m).
Several values for one entry are separate records, joined by “and”; a condition that tells them apart may be missing. Equal values may be shown once.

Legend:
[1] = Liquid, Vibrating tube method
[2] = xn = mol fraction of the nth substance listed; settings: Liquid, Vibrating tube method, x1 = 1

CCO [ethanol]
mass density [kg/m3], [1]
Settings | 100 kPa | 5000 kPa | 10000 kPa | 15000 kPa | 20000 kPa
283.15 K | 797.7 | 801.8 | 805.6 | 809.6 | 813.1
298.15 K | 784.9 | 789.3 | 793.6 | 797.7 | 801.6
313.15 K | 771.9 | 776.8 | 781.3 | 785.7 | 789.9
328.15 K | 758.6 | 763.8 | 768.9 | 773.6 | 778.1

CCO [ethanol] + C=CC(C)(O)CCC=C(C)C
mass density [kg/m3], [2]
Settings | 100 kPa | 5000 kPa | 10000 kPa | 15000 kPa | 20000 kPa
283.15 K | 797.7 | 801.8 | 805.6 | 809.6 | 813.1
298.15 K | 784.9 | 789.3 | 793.6 | 797.7 | 801.6
313.15 K | 771.9 | 776.8 | 781.3 | 785.7 | 789.9
328.15 K | 758.6 | 763.8 | 768.9 | 773.6 | 778.1

C=CC(C)(O)CCC=C(C)C (configuration not stated) [3,7-dimethyl-1,6-octadien-3-ol]
mass density, [1]
Settings | 283.15 K | 283.18 K | 298.15 K | 313.15 K | 328.15 K | 328.18 K
100 kPa | 869.2 kg/m3 and 869.5 kg/m3 | – | 856.9 kg/m3 and 857.3 kg/m3 | 844.1 kg/m3 and 844.5 kg/m3 | 831.3 kg/m3 and 831.7 kg/m3 | –
5000 kPa | 872.3 kg/m3 and 872.6 kg/m3 | – | 860.1 kg/m3 and 860.6 kg/m3 | 847.8 kg/m3 and 848.2 kg/m3 | 835.2 kg/m3 and 835.6 kg/m3 | –
10000 kPa | 875.2 kg/m3 and 875.7 kg/m3 | – | 863.5 kg/m3 and 863.9 kg/m3 | 851.3 kg/m3 and 851.6 kg/m3 | 839.1 kg/m3 and 839.5 kg/m3 | 839.5 kg/m3
15000 kPa | 878.2 kg/m3 and 878.7 kg/m3 | 878.7 kg/m3 | 866.6 kg/m3 and 867 kg/m3 | 854.8 kg/m3 and 855 kg/m3 | 842.7 kg/m3 and 843.1 kg/m3 | –
20000 kPa | 881 kg/m3 and 881.5 kg/m3 | – | 869.6 kg/m3 and 870 kg/m3 | 858.1 kg/m3 and 858.4 kg/m3 | 846.3 kg/m3 and 846.7 kg/m3 | –

CC(C)O [propan-2-ol] + C=CC(C)(O)CCC=C(C)C
mass density [kg/m3], [2]
Settings | 283.15 K | 283.18 K | 298.15 K | 313.15 K | 328.15 K | 328.18 K
100 kPa | 793.7 | – | 781.2 | 768.1 | 754.4 | –
5000 kPa | 797.5 | – | 785.5 | 773 | 759.6 | –
10000 kPa | 801.3 | – | 789.7 | 777.5 | – | 764.8
15000 kPa | – | 805.2 | 793.8 | 781.9 | 769.5 | –
20000 kPa | 808.9 | – | 797.6 | 786.1 | 774 | –

CC(C)O [propan-2-ol]
mass density [kg/m3], [1]
Settings | 283.15 K | 283.18 K | 298.15 K | 313.15 K | 328.15 K | 328.18 K
100 kPa | 793.7 | – | 781.2 | 768.1 | 754.4 | –
5000 kPa | 797.5 | – | 785.5 | 773 | 759.6 | –
10000 kPa | 801.3 | – | 789.7 | 777.5 | – | 764.8
15000 kPa | – | 805.2 | 793.8 | 781.9 | 769.5 | –
20000 kPa | 808.9 | – | 797.6 | 786.1 | 774 | –

CCCO [propan-1-ol] + C=CC(C)(O)CCC=C(C)C
mass density [kg/m3], [2]
Settings | 100 kPa | 5000 kPa | 10000 kPa | 15000 kPa | 20000 kPa
283.15 K | 810.9 | 814.7 | 818.1 | 821.7 | 824.9
298.15 K | 799 | 803 | 806.9 | 810.6 | 814.1
313.15 K | 786.8 | 791.2 | 795.3 | 799.3 | 803.1
328.15 K | 774.5 | 779.1 | 783.7 | 787.8 | 791.9

CCCO [propan-1-ol]
mass density [kg/m3], [1]
Settings | 100 kPa | 5000 kPa | 10000 kPa | 15000 kPa | 20000 kPa
283.15 K | 810.9 | 814.7 | 818.1 | 821.7 | 824.9
298.15 K | 799 | 803 | 806.9 | 810.6 | 814.1
313.15 K | 786.8 | 791.2 | 795.3 | 799.3 | 803.1
328.15 K | 774.5 | 779.1 | 783.7 | 787.8 | 791.9
